Source: PubChem BioAssay (NCI)
Where “and” joins values, the source holds several entries; their conditions need not be identical. Identical values can stand only once.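 Where inhibition never reached the appropriate level, the endpoint shown equals the highest concentration tested. Otherwise, values were interpolated linearly from a five-concentration, 48-hour dose response in 96-well plates. GI50 = concentration required for 50% inhibition of growth. At the TGI there is no net growth.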

Experiments:
Assay in all cases: NCI tumour cell line growth inhibition, 48 h
A498 renal = system: A498 renal
COLO 205 colon = system: COLO 205 colon
DU-145 prostate = system: DU-145 prostate
HL-60(TB) leukemia = system: HL-60(TB) leukemia
HOP-62 NSCLC = system: HOP-62 NSCLC
K-562 leukemia = system: K-562 leukemia
RXF 393 renal = system: RXF 393 renal
SNB-19 CNS = system: SNB-19 CNS
UO-31 renal = system: UO-31 renal
HT29 colon = system: HT29 colon

| SMILES | TGI (A498 renal) | TGI (COLO 205 colon) [µM] | TGI (DU-145 prostate) [µM] | TGI (HL-60(TB) leukemia) [µM] | TGI (HOP-62 NSCLC) | TGI (K-562 leukemia) [µM] | TGI (RXF 393 renal) [µM] | TGI (SNB-19 CNS) [µM] | TGI (UO-31 renal) | TGI (HT29 colon) [µM] | GI50 (RXF 393 renal) | GI50 (UO-31 renal) | GI50 (A498 renal) [µM] | GI50 (COLO 205 colon) [µM] | GI50 (DU-145 prostate) [µM] | GI50 (HL-60(TB) leukemia) [µM] | GI50 (HOP-62 NSCLC) [µM] | GI50 (HT29 colon) [µM] | GI50 (K-562 leukemia) [µM] | GI50 (SNB-19 CNS) [µM] |
| --- | --- | --- | --- | --- | --- | --- | --- | --- | --- | --- | --- | --- | --- | --- | --- | --- | --- | --- | --- | --- |
| Cc1cn([C@H]2CN(O)C[C@@H](CO)O2)c(=O)[nH]c1=O | > 100 µM | > 100 | > 100 | > 100 | > 100 µM | > 100 | > 100 | > 100 | > 100 µM |  |  |  |  |  |  |  |  |  |  |  |
| CCCCCCCC(=O)OC[n+]1cccc(-c2c(COC(=O)NC(C)C)c(COC(=O)NC(C)C)c3n2CCC3)c1 | > 89.4 µM | > 100 | > 100 | > 82.1 | > 100 µM | > 100 | 97.2 | > 100 | > 100 µM | > 100 |  |  |  |  |  |  |  |  |  |  |
| c1ccc2[nH]c(-c3cscn3)nc2c1 | > 100 µM | > 100 | > 100 | > 100 | > 100 µM and 19.6 µM | > 100 | > 100 | > 100 | > 100 µM | > 100 | > 100 µM and 49.1 µM | > 100 µM and 25.8 µM |  |  |  |  |  |  |  |  |
| COc1ccc(-c2nn(-c3cccc(Cl)c3)cc2-c2c(C#N)c(=O)n3[nH]c(-c4ccc(C)o4)nc3c2C#N)cc1 | 10.7 µM | 11.6 | > 50 | 23.5 | > 50 µM | > 50 | > 50 | > 50 | 38.9 µM | 33.6 | 4.11 µM | 1.8 µM | 1.55 | 5.47 | 19.1 | 4.88 | 14.1 | 7.21 | 4.09 | 8.63 |
| CCCC/C=C1/CCC(CN(C)C)C1=O (stereo unspecified) | 15.9 µM | 3.04 | 28.9 | 4.63 | 35.2 µM | 3.79 | 3.38 | 12.3 | 5.97 µM | 4.7 |  |  |  |  |  |  |  | 2.3 |  |  |
| Fc1cccc(C2ON=C(c3ccccc3)N2C23CC4CC(CC(C4)C2)C3)c1 (stereo unspecified) | > 10 µM | > 10 | > 10 | > 10 | > 10 µM | > 10 | > 10 | > 10 |  | > 10 |  |  |  |  |  |  |  |  |  |  |
| NCC[PH+](c1ccccc1)c1ccccc1.NCC[PH+](c1ccccc1)c1ccccc1.[Cl-].[Pt+4] | > 100 µM | > 100 | > 100 | > 57.8 | > 100 µM | > 84.7 | > 100 | > 100 | > 100 µM | > 100 | > 100 µM | > 100 µM | > 100 | > 100 | > 100 | 1.8 | > 100 | 85 | 26.5 | 46.1 |
| COc1cc(-c2ccc[nH]2)[nH]c1/C=C1\N=C(C)C(C(=O)NC(C)C)=C1C | 21.6 µM | 14.1 | 18.2 | 10.3 | 15.8 µM | 15.2 | 9.66 | 23.8 | 11 µM | 10.8 | 2.28 µM | 2.72 µM | 8.91 | 3.25 | 4.7 | 2.4 | 3.77 | 0.508 | 3.53 | 10.4 |
| COc1ccc2cc1Oc1ccc(cc1)CC1c3c(cc(OC)c4c3Oc3cc5c(cc3O4)CCNC5C2)CCN1C (stereo unspecified) | 3.7 µM and 3.02 µM | 3.41 | 2.87 | 3.67 | 5.06 µM and 2.95 µM |  | 0.883 | 4.32 | 30.7 µM and 3.13 µM | 1.91 | 0.288 µM | 1.67 µM | 1.64 |  | 1.54 |  | 1.59 | 0.626 |  |  |
| COc1ccc(C2=NOC3=c4ccccc4=CSC3=C2c2ccccc2)cc1 | > 100 µM | > 100 | > 100 | > 100 | > 100 µM | > 100 | 63.7 | > 100 | > 100 µM | > 100 | 22.2 µM | 39.2 µM |  | 48.7 | 19.8 | 39.7 | 17.3 | 37.1 | 51.2 | 34.7 |
| CN(Cc1cnc2nc(N)nc(N)c2n1)c1c(Cl)cc(C(=O)NC(CCC(=O)O)C(=O)O)cc1Br (stereo unspecified) | > 100 µM | > 100 | > 100 | > 100 | > 100 µM | > 100 | > 100 | > 100 |  | > 100 | 0.345 µM | < 0.01 µM | 0.0302 | 0.0535 | < 0.01 | < 0.01 | < 0.0221 | < 0.01 | < 0.01 | 0.031 |
| CCCCCCC1CCCCN1C(c1ccccc1)C(O)c1ccccc1 (stereo unspecified) | 23.5 µM | 11.4 | 20.7 | 7.01 | 22.5 µM | 21.7 | 6.77 | 30 | 19.8 µM | 12.2 | 2.18 µM | 5.69 µM | 11.1 | 3.09 | 8.34 | 3.01 | 10.3 | 3.09 | 4.23 | 15.1 |
| Cc1ncc([N+](=O)[O-])n1CCOc1ccc(C(=O)/C=C/c2ccc(C(F)(F)F)cc2)cc1 | 20.2 µM | 4.67 | 11.9 | 11.4 | 7.29 µM | 3.83 | 17.6 | 15.7 | 2.87 µM | 4.23 | 4.54 µM | 1.48 µM | 6.57 | 2.11 | 3.56 | 2.91 | 2.53 | 1.99 | 1.53 | 3.34 |
| CSc1ccc2c(c1)N(CCCN(C)C)c1ccccc1S2 | 24.6 µM | 31.7 | 30.1 | 31.3 | 28.4 µM | 17 | 22.5 | 30.6 |  | 21.1 |  |  |  |  |  |  |  |  |  |  |
| C#CCN(CCCOc1ccc(Cl)cc1Cl)CCCSC(=O)CCCCCN1/C(=C\C=C2/CCCC(/C=C/C3=[N+](CCCCCC(=O)[O-])c4ccccc4C3(C)C)=C2Cl)C(C)(C)c2ccccc21 | 4.12 µM | 3.39 | 10.9 | 4.79 | 5.72 µM | > 100 | 3.37 | 3.64 | 26.2 µM | 6.47 | 1.66 µM | 10.6 µM | 1.31 | 1.41 | 3.02 | 1.62 | 2.1 | 2.49 | 0.667 | 1.12 |
| CN1CCC(C(=O)Nc2n[nH]c3nnc(-c4ccccc4)cc23)CC1 | > 21.5 µM | > 25 | > 25 | > 25 | > 25 µM | > 25 | > 25 | > 25 | > 25 µM | > 25 | 12.3 µM | > 25 µM | 5.67 | > 25 | > 25 | > 25 | > 25 | > 17.8 | > 25 | > 25 |
| Cc1nc2sc(C(=O)Nc3cccc(Cl)c3)c(N)c2cc1C(O)c1ccccc1 (stereo unspecified) | 0.815 µM | > 100 | 17.2 | 6.67 | 25.5 µM | > 100 | 11.5 | 20.3 | 15.6 µM | > 100 | 0.722 µM | 2.37 µM | 0.181 | 3.31 | 0.923 | 0.401 | 1.45 | 0.387 | 0.488 | 2.33 |
| O=C([CH-]C(=O)c1ccccc1)c1ccccc1.[CH2-]C.[CH2-]C.[Tl+3] | > 100 µM | > 100 | 59.3 | 21.6 | > 90.2 µM | 59.6 | 88.7 | > 100 | > 77.2 µM | > 100 | 16.5 µM | 22.3 µM | 48.9 | 26.6 | 15.3 | 2.99 | 22.2 | 26 | 9.92 | 31.2 |
| COC(=O)c1sc(=S)c2sc(C(=O)OC)c(C(=O)OC)c2c1C(=O)OC | 52.1 µM | > 100 | > 100 | 62.3 | > 100 µM | > 100 | > 100 | > 100 | > 100 µM | > 100 | 41.7 µM | 68.5 µM | 22.2 | 69.8 | 71.1 | 21.9 | 59.7 | 72.6 | 36.2 | 86.7 |
| CC(=O)OCCc1cc2ccccc2oc1=O | > 100 µM | > 100 | > 100 | > 100 | > 100 µM | > 100 | > 100 | > 100 | > 100 µM | > 100 |  |  |  |  |  |  |  |  |  |  |
| CC(C)(C)OC(=O)CC(S(=O)(=O)c1ccccc1)S(=O)(=O)c1ccccc1 | 26.4 µM | 3.32 | 28.8 | 12.2 | 35.4 µM | 13.5 | 3.31 | > 100 | 10.4 µM |  | 1.8 µM | 2.9 µM | 13.2 | 1.89 | 15.2 | 3.19 | 19.1 |  | 3.4 | > 100 |
